System: not listed separately
Assay: Experimental distribution coefficient (eLogD)
Assay type: physicochemical
Details: S1 Data
Method: To determine the lipophilicity of the compounds, a methodology based on the retention time of molecules in reverse stationary phase (Ascentis RP-Amide HPLC column) was used. The chromatogram was obtained using LC-MS/MS. Test compounds were prepared at 1.0 μg/mL by adding the stock solution at (1:1) mobile phases A:B + internal standard at 200nM (A: 5% methanol in 10mM ammonium acetate pH 7.4, B: 100% methanol), DMSO concentration must be lower than 2%. […] The retention time (in minutes) of each of the eight standards was plotted against their LogD values. The resulting equation for the calibration curve (y = mx + b) was used to calculate the LogD values for the test compounds.

Row | Substance | eLogD
1 | O=C(c1cc(nc(NC(=O)Cc2ccc(F)cc2)n3CCC)c3cc1)N4CCCC4 [Compound 13] | 3.99
2 | CCCn1c(NC(=O)Cc2ccc(F)cc2)nc(c13)cc(C(=O)NC4CC4)cc3 [Compound 12] | 3.50
3 | CCCn1c(NC(=O)Cc2ccc(F)cc2)nc(c13)cc(C(=O)NC)cc3 [Compound 11] | 3.18
4 | CCCn1c(NC(=O)Cc2ccc(F)cc2)nc(c13)cc(C(=O)OC)cc3 [Compound 9] | 4.04
5 | CCCn1c(NC(=O)Cc2ccc(F)cc2)nc(c13)cc(C(=O)N4CCOCC4)cc3 [Compound 14] | 3.05
6 | O=C(Nc1n(C2CC2)c(c3n1)ccc(F)c3)Cc4ccc(Cl)cc4 [Compound 22] | 3.98
7 | CCCn1c(NC(=O)Cc2ccc(F)cc2)nc(c13)cc(C(=O)N(C)OC)cc3 [Compound 15] | 3.31

Same assay, conditions: experimental, pH 7.4

Row | Substance | eLogD
8 | O=C(c1cc(nc(NC(=O)Cc2ccc(F)cc2)n3CCC)c3cc1)N4CCCC4 [Compound 13] | 4.0
9 | CCCn1c(NC(=O)Cc2ccc(F)cc2)nc(c13)cc(C(=O)NC4CC4)cc3 [Compound 12] | 3.5
10 | CCCn1c(NC(=O)Cc2ccc(F)cc2)nc(c13)cc(C(=O)N(C)OC)cc3 [Compound 15] | 3.3

System: Leishmania infantum MHOM/MA(BE)/67/ITMAP263 amastigotes
Assay: L. infantum intracellular amastigote assay in PMM
Assay type: cell-based
Details: CC50 / L. infantum IC50
Method: (§1) Leishmania infantum MHOM/MA(BE)/67/ITMAP263 amastigotes were collected from the spleen of infected donor Golden hamsters. Primary peritoneal mouse macrophages (PMM) were used as host cells for in vitro assays. PMM were collected from Swiss mice after 2 days of peritoneal stimulation with a 2% suspension of potato starch and maintained in RPMI-1640 medium supplemented with 200 mM L-glutamine, antibiotics and 5% FCS at 37°C and 5% CO2. Promastigotes of L. infantum chagasi (luciferase) (MHOM/BR/2005/NLC) obtained as described in Reimão et al.,[27] were grown in M199 medium supplemented with 10% FCS, 0.25% hemin, 32 μg/ml hygromycin and 2% sterile human urine at 25°C and 5% CO2.
(§2) Stock solutions of the compounds at 20 mM were prepared in 100% DMSO. Next, the compounds were serially pre-diluted in DMSO followed by a further dilution in demineralized water to assure a final in-test DMSO concentration below 1%. The compounds were tested at 4-fold dilutions starting at 64 μM.
For the antileishmania in vitro assays, 3×10^4 PMM/well were seeded in 96-well plates. After 24h, 5×10^5 amastigotes/well were added and incubated for 2h at 37°C. Next, the compounds in 4-fold serial dilutions were added and the plates were further incubated for 5 days (37°C, 5% CO2). Parasite burdens were assessed using an inverted microscope after Giemsa staining. The results were expressed as percent reduction in parasite burdens compared to negative control wells (100% growth) and IC50 values were determined. Values represent the geometric mean of at least two independent experiments. Miltefosine was used as the positive control in all plates.

Row | Substance | SI: selectivity index (CC50 / IC50)
11 | O=C(c1cc(nc(NC(=O)Cc2ccc(F)cc2)n3CCC)c3cc1)N4CCCC4 [Compound 13] | 6
12 | CCCn1c(NC(=O)Cc2ccc(F)cc2)nc(c13)cc(C(=O)NC4CC4)cc3 [Compound 12] | 1
13 | CCCn1c(NC(=O)Cc2ccc(F)cc2)nc(c13)cc(C(=O)NC)cc3 [Compound 11] | 1
14 | CCCn1c(NC(=O)Cc2ccc(F)cc2)nc(c13)cc(C(=O)OC)cc3 [Compound 9] | 3
15 | CCCn1c(NC(=O)Cc2ccc(F)cc2)nc(c13)cc(C(=O)N4CCOCC4)cc3 [Compound 14] | 1
16 | CCCn1c(NC(=O)Cc2ccc(F)cc2)nc(c13)cc(C(=O)N(C)OC)cc3 [Compound 15] | 5

Same assay, conditions: S1 Data; read-out: L. infantum IC50

Row | Substance | IC50
17 | O=C(c1cc(nc(NC(=O)Cc2ccc(F)cc2)n3CCC)c3cc1)N4CCCC4 [Compound 13] | 9.79 µM
18 | CCCn1c(NC(=O)Cc2ccc(F)cc2)nc(c13)cc(C(=O)NC4CC4)cc3 [Compound 12] | 45.2 µM
19 | CCCn1c(NC(=O)Cc2ccc(F)cc2)nc(c13)cc(C(=O)NC)cc3 [Compound 11] | > 64 µM
20 | CCCn1c(NC(=O)Cc2ccc(F)cc2)nc(c13)cc(C(=O)OC)cc3 [Compound 9] | 6.49 µM
21 | CCCn1c(NC(=O)Cc2ccc(F)cc2)nc(c13)cc(C(=O)N4CCOCC4)cc3 [Compound 14] | 57 µM
22 | O=C(Nc1n(C2CC2)c(c3n1)ccc(F)c3)Cc4ccc(Cl)cc4 [Compound 22] | 2.54 µM
23 | CCCn1c(NC(=O)Cc2ccc(F)cc2)nc(c13)cc(C(=O)N(C)OC)cc3 [Compound 15] | 12.7 µM

Same assay, conditions: intracellular amastigotes in PMM, 5 days; read-out: L. infantum IC50

Row | Substance | IC50
24 | O=C(c1cc(nc(NC(=O)Cc2ccc(F)cc2)n3CCC)c3cc1)N4CCCC4 [Compound 13] | 9.8 µM
25 | CCCn1c(NC(=O)Cc2ccc(F)cc2)nc(c13)cc(C(=O)NC4CC4)cc3 [Compound 12] | 45 µM
26 | CCCn1c(NC(=O)Cc2ccc(F)cc2)nc(c13)cc(C(=O)OC)cc3 [Compound 9] | 6.5 µM
27 | CCCn1c(NC(=O)Cc2ccc(F)cc2)nc(c13)cc(C(=O)N4CCOCC4)cc3 [Compound 14] | 57 µM
28 | CCCn1c(NC(=O)Cc2ccc(F)cc2)nc(c13)cc(C(=O)N(C)OC)cc3 [Compound 15] | 13 µM

System: MRC-5 cells
Assay: MRC-5 cytotoxicity
Assay type: cell-based
Details: S1 Data

Row | Substance | CC50
29 | O=C(c1cc(nc(NC(=O)Cc2ccc(F)cc2)n3CCC)c3cc1)N4CCCC4 [Compound 13] | > 64 µM
30 | CCCn1c(NC(=O)Cc2ccc(F)cc2)nc(c13)cc(C(=O)NC4CC4)cc3 [Compound 12] | > 64 µM
31 | CCCn1c(NC(=O)Cc2ccc(F)cc2)nc(c13)cc(C(=O)NC)cc3 [Compound 11] | 34.8 µM
32 | CCCn1c(NC(=O)Cc2ccc(F)cc2)nc(c13)cc(C(=O)OC)cc3 [Compound 9] | 18.7 µM
33 | CCCn1c(NC(=O)Cc2ccc(F)cc2)nc(c13)cc(C(=O)N4CCOCC4)cc3 [Compound 14] | > 64 µM
34 | O=C(Nc1n(C2CC2)c(c3n1)ccc(F)c3)Cc4ccc(Cl)cc4 [Compound 22] | 21.9 µM
35 | CCCn1c(NC(=O)Cc2ccc(F)cc2)nc(c13)cc(C(=O)N(C)OC)cc3 [Compound 15] | 55.5 µM

System: not listed separately
Assay: Parallel artificial membrane permeability assay (PAMPA)
Assay type: in vitro ADME
Details: S1 Data
Method: To determine the passive permeability of the compounds, a 96-well plate containing membranes pre-coated with lipids (Corning Gentest # 353015) was used. The solutions of the compounds were prepared by diluting the stock solutions (10mM) in phosphate buffered saline (PBS) pH 6.5 at a final concentration of 10μM. The solutions diluted in PBS pH 6.5 were then added to the donor portion of the plate (300 μl/well), while PBS pH 7.4 (200 μl/well) was added to the acceptor portion. The two portions of the plate were then coupled, and the system was incubated for 5 h at 37°C. At the end of the incubation, samples were collected from the donor and acceptor plates, and then added to plates containing quench solution (10% water and 90% methanol: acetonitrile (50:50) + 50 nM tolbutamide). The final concentrations of compounds in the donor, acceptor, and initial solution (T0) wells were analyzed using LC-MS/MS. The results were used to calculate an effective permeability (Pe) value. The PAMPA assay was performed in triplicate (n = 3).

Row | Substance | PAMPA Pe
36 | O=C(c1cc(nc(NC(=O)Cc2ccc(F)cc2)n3CCC)c3cc1)N4CCCC4 [Compound 13] | 7.92 10-6 cm/s
37 | CCCn1c(NC(=O)Cc2ccc(F)cc2)nc(c13)cc(C(=O)NC4CC4)cc3 [Compound 12] | 13.10 10-6 cm/s
38 | CCCn1c(NC(=O)Cc2ccc(F)cc2)nc(c13)cc(C(=O)NC)cc3 [Compound 11] | 9.18 10-6 cm/s
39 | CCCn1c(NC(=O)Cc2ccc(F)cc2)nc(c13)cc(C(=O)OC)cc3 [Compound 9] | 8.66 10-6 cm/s
40 | CCCn1c(NC(=O)Cc2ccc(F)cc2)nc(c13)cc(C(=O)N4CCOCC4)cc3 [Compound 14] | 7.26 10-6 cm/s
41 | O=C(Nc1n(C2CC2)c(c3n1)ccc(F)c3)Cc4ccc(Cl)cc4 [Compound 22] | 17.70 10-6 cm/s
42 | CCCn1c(NC(=O)Cc2ccc(F)cc2)nc(c13)cc(C(=O)N(C)OC)cc3 [Compound 15] | 9.07 10-6 cm/s

System: PMM (Primary Mouse Macrophages)
Assay: Cytotoxicity on primary peritoneal mouse macrophages
Assay type: cell-based
Details: S1 Data; read-out: PMM IC50
Method: as §1, §2

Row | Substance | IC50
43 | O=C(c1cc(nc(NC(=O)Cc2ccc(F)cc2)n3CCC)c3cc1)N4CCCC4 [Compound 13] | > 64 µM
44 | CCCn1c(NC(=O)Cc2ccc(F)cc2)nc(c13)cc(C(=O)NC4CC4)cc3 [Compound 12] | > 64 µM
45 | CCCn1c(NC(=O)Cc2ccc(F)cc2)nc(c13)cc(C(=O)NC)cc3 [Compound 11] | > 64 µM
46 | CCCn1c(NC(=O)Cc2ccc(F)cc2)nc(c13)cc(C(=O)OC)cc3 [Compound 9] | 16 µM
47 | CCCn1c(NC(=O)Cc2ccc(F)cc2)nc(c13)cc(C(=O)N4CCOCC4)cc3 [Compound 14] | > 64 µM
48 | O=C(Nc1n(C2CC2)c(c3n1)ccc(F)c3)Cc4ccc(Cl)cc4 [Compound 22] | 25.4 µM
49 | CCCn1c(NC(=O)Cc2ccc(F)cc2)nc(c13)cc(C(=O)N(C)OC)cc3 [Compound 15] | > 64 µM

System: not listed separately
Assay: Mouse liver microsomal stability
Assay type: in vitro ADME
Details: S1 Data
Method: The metabolic stability of the compounds was evaluated in human (pool of 200 donors, XenoTech) and mouse liver microsomes (CD1 mouse, GIBCO). Test compounds were prepared at a concentration of 0.5 μM and incubated with 0.25 mg/mL liver microsomes at pH 7.4 and 37°C. The reaction was started by addition of NADPH at […]. Samples were taken at 0, 5, 10, 15, 20 and 30 minutes. The reaction was stopped by the addition of acetonitrile:methanol (1:1) containing an internal standard (tolbutamide at 50 nM). Compounds were quantified by liquid chromatography triple quadrupole mass spectrometry (LC-MS/MS). Peak area ratios (analyte/internal standard) were converted to % remaining using the area ratio at time 0 as 100%. Half-life (t1/2 = ln(2)/k) in minutes and intrinsic clearance (Clint = k x 1000/(0.25)) in μL/min/mg were calculated using a non-linear regression from % remaining versus incubation time. From this plot, the slope (k) was determined. The analysis conditions were: analytical column (Gemini C18, […], Phenomenex), electrospray ionization source (ESI) in positive and negative mode, mobile phase A (water + 0.1% formic acid) and B (acetonitrile + 0.1% formic acid), flow rate of 0.7 mL/min.

Row | Substance | MLM CLint
50 | O=C(c1cc(nc(NC(=O)Cc2ccc(F)cc2)n3CCC)c3cc1)N4CCCC4 [Compound 13] | 138 µL/min/mg
51 | CCCn1c(NC(=O)Cc2ccc(F)cc2)nc(c13)cc(C(=O)NC4CC4)cc3 [Compound 12] | 52 µL/min/mg
52 | CCCn1c(NC(=O)Cc2ccc(F)cc2)nc(c13)cc(C(=O)NC)cc3 [Compound 11] | 66 µL/min/mg
53 | CCCn1c(NC(=O)Cc2ccc(F)cc2)nc(c13)cc(C(=O)OC)cc3 [Compound 9] | 1253 µL/min/mg
54 | CCCn1c(NC(=O)Cc2ccc(F)cc2)nc(c13)cc(C(=O)N4CCOCC4)cc3 [Compound 14] | <23 µL/min/mg
55 | O=C(Nc1n(C2CC2)c(c3n1)ccc(F)c3)Cc4ccc(Cl)cc4 [Compound 22] | 380 µL/min/mg
56 | CCCn1c(NC(=O)Cc2ccc(F)cc2)nc(c13)cc(C(=O)N(C)OC)cc3 [Compound 15] | 128 µL/min/mg

Same assay, conditions: mouse liver microsome intrinsic clearance

Row | Substance | MLM CLint
57 | CCCn1c(NC(=O)Cc2ccc(F)cc2)nc(c13)cc(C(=O)N4CCOCC4)cc3 [Compound 14] | 23 µL/min/mg

Source: publication PMC7932521, “2-aminobenzimidazoles for leishmaniasis: From initial hit discovery to in vivo profiling” (PLoS Neglected Tropical Diseases, 2021)
